This test has as its system LMP1 expression in Kem I cells. Description: microbe, parasite or virus in culture. The conditions noted are these: for fold induction at 2.5 µM: human gammaherpesvirus 4, 48 h. The test is classed as cell-based, EBV.
The mark [1] stands for this setting: Kem I cells, 2.5 uM, 48 hours, average of replicates 1 and 2.
[2] abbreviates: Kem I cells, 2.5 uM, 48 hours, fold change in LMP1 transcript vs vehicle.
The mark [3] stands for this setting: read-out: Average LMP1 Fold Increase, Kem I cells, 2.5 uM, 48 hours, average of replicates 1 and 2.
Where [4] appears, read: read-out: Replicate 1-LMP1 Fold Increase, Kem I cells, 2.5 uM, 48 hours, fold change in LMP1 transcript vs vehicle.
[5] abbreviates: read-out: Replicate 2-LMP1 Fold Increase, Kem I cells, 2.5 uM, 48 hours, fold change in LMP1 transcript vs vehicle.

Structures can show the parent of a compound that is named as a salt. Where two headings read alike, the source gives them in different places.

The record followed here is US20230053688A1, “METHODS TO ALTER LATENCY IN EBV+ MALIGNANCIES” (Cornell University, priority 2020, published 2023).

Regarding `O=C(O)CNC(=O)c1c(O)c2ccccc2n(Cc2ccccc2)c1=O` [IOX2], under setting [1], the “Average LMP1 Fold Increase” value is on record as 0.39. Also, under setting [2], the “Replicate 1-LMP1 Fold Increase” value was 0.40 and the “Replicate 2-LMP1 Fold Increase” value stood at 0.38.
The like results for `Oc1ccc2ccccc2c1SSc1c(O)ccc2ccccc12` [IPA-3] were, in that order, 0.27, 0.21 and 0.33.
Consider `C=CC(=O)N1CCC[C@@H](n2nc(-c3ccc(Oc4ccccc4)cc3)c3c(N)ncnc32)C1` [Ibrutinib (PCl-32765)], for which the “Average LMP1 Fold Increase” value amounted to 0.15, the “Replicate 1-LMP1 Fold Increase” value amounted to 0.09 and the “Replicate 2-LMP1 Fold Increase” value is recorded as 0.22.
Regarding `C#Cc1cccc(Nc2ncnc3cc4c(cc23)OCCOCCOCCO4)c1` [Icotinib], the fold induction at 2.5 µM is 8.04 under setting [3], 15.7 under setting [4] and 0.34 under setting [5].
Consider `CNC(=O)[C@H](Cc1c[nH]c2ccccc12)NC(=O)[C@@H](CC(=O)NO)CC(C)C` [Ilomastat (GM6001, Galardin)], for which the “Average LMP1 Fold Increase” value under setting [1] is reported as 0.08. Under setting [2], the “Replicate 1-LMP1 Fold Increase” value amounted to 0.05 and the “Replicate 2-LMP1 Fold Increase” value came out at 0.12.
Consider `Cc1ccc(NC(=O)c2ccc(CN3CCN(C)CC3)cc2)cc1Nc1nccc(-c2cccnc2)n1` [Imatinib (STI571)], for which the “Average LMP1 Fold Increase” value under setting [1] turned out to be 0.42. Further, under setting [2], the “Replicate 1-LMP1 Fold Increase” value turned out to be 0.60 and the “Replicate 2-LMP1 Fold Increase” value worked out at 0.25.
As to `CCOC(=O)[C@H](CCc1ccccc1)N[C@@H](C)C(=O)N1C(=O)N(C)C[C@H]1C(=O)O` [Imidapril HCl], the fold induction at 2.5 µM reads like this: under setting [3], 0.66; under setting [4], 0.88; under setting [5], 0.44.
Regarding `NC(=O)c1ccc(I)c([N+](=O)[O-])c1` [Iniparib (BSl-201)], the “Average LMP1 Fold Increase” value under setting [1] turned out to be 0.63. Moreover, under setting [2], the “Replicate 1-LMP1 Fold Increase” value was found to be 0.51 and the “Replicate 2-LMP1 Fold Increase” value was determined as 0.76.
`CCc1c2c(nc3ccc(OC(=O)N4CCC(N5CCCCC5)CC4)cc13)-c1cc3c(c(=O)n1C2)COC(=O)[C@]3(O)CC` [Irinotecan]: under setting [1], the “Average LMP1 Fold Increase” value is 0.59.
For the compound `CC1=C(/C=C/C(C)=C/C=C/C(C)=C\C(=O)O)C(C)(C)CCC1` [Isotretinoin], the fold induction at 2.5 µM under setting [3] was 1.76, the fold induction at 2.5 µM under setting [4] is 1.42 and the fold induction at 2.5 µM under setting [5] amounted to 2.1.
For the compound `Cc1ccc(C(=O)N(CCCN)[C@@H](c2nc3cc(Cl)ccc3c(=O)n2Cc2ccccc2)C(C)C)cc1` [Ispinesib (SB-715992)], under setting [1], the “Average LMP1 Fold Increase” value came to 1.57. Also, under setting [2], the “Replicate 1-LMP1 Fold Increase” value came to 2.72 and the “Replicate 2-LMP1 Fold Increase” value came out at 0.43.
On to `CCn1c(=O)c2c(nc(/C=C/c3ccc(OC)c(OC)c3)n2C)n(CC)c1=O` [Istradefylline], for which the fold induction at 2.5 µM runs as follows: under setting [3], 0.7; under setting [4], 0.35; under setting [5], 1.06.
Turning to `CC(C)(C)c1cc(C(C)(C)C)c(NC(=O)c2c[nH]c3ccccc3c2=O)cc1O` [Ivacaftor (VX-770)], the “Average LMP1 Fold Increase” value under setting [1] worked out at 1.35. For the same compound, under setting [2], the “Replicate 1-LMP1 Fold Increase” value was 2.22 and the “Replicate 2-LMP1 Fold Increase” value was 0.49.
For `O=C(Nc1ccccc1)N1CCN(c2nc(-c3ccccc3)ns2)CC1` [JNJ-1661010] the same measures were 0.51, 0.31 and 0.70.
As to `Cc1ccc(NCCCc2ccccc2)c(N)c1` [JSH-23], the “Average LMP1 Fold Increase” value under setting [1] is 0.77. Besides, under setting [2], the “Replicate 1-LMP1 Fold Increase” value worked out at 0.86 and the “Replicate 2-LMP1 Fold Increase” value stood at 0.69.
For `COc1cc(-c2ncn(/C=C\C(=O)OC(C)C)n2)cc(C(F)(F)F)c1` [KPT-185] the same measures were 0.68, 0.56 and 0.80.
The like results for `O=C(/C=C\n1cnc(-c2cc(C(F)(F)F)cc(C(F)(F)F)c2)n1)N1CC(F)(F)C1` [KPT-276] were, in that order, 1.94, 0.97 and 2.91.
For `O=C(/C=C\n1cnc(-c2cc(C(F)(F)F)cc(C(F)(F)F)c2)n1)NNc1cnccn1` [KPT-330] the same measures were 0.35, 0.28 and 0.42.
Take `O=c1cc(-c2cccc3c2Sc2ccccc2S3)oc(N2CCOCC2)c1` [KU-55933 (ATM Kinase Inhibitor)]: the “Average LMP1 Fold Increase” value under setting [1] came to 0.78. Under setting [2], the “Replicate 1-LMP1 Fold Increase” value turned out to be 0.60 and the “Replicate 2-LMP1 Fold Increase” value was found to be 0.95.
Turning to `C[C@@H]1CN(CC(=O)Nc2ccc3c(c2)Cc2cccc(-c4cc(=O)cc(N5CCOCC5)o4)c2S3)C[C@H](C)O1` [KU-60019], the fold induction at 2.5 µM under setting [3] worked out at 0.51, the fold induction at 2.5 µM under setting [4] turned out to be 0.49 and the fold induction at 2.5 µM under setting [5] was 0.53.
With `COC(=O)CCSCc1ccc(-c2onc(C)c2NC(=O)OC(C)c2ccccc2Cl)cc1` (stereo not shown) [Ki16198], the “Average LMP1 Fold Increase” value under setting [1] came to 1.33. Also, under setting [2], the “Replicate 1-LMP1 Fold Increase” value was 1.53 and the “Replicate 2-LMP1 Fold Increase” value worked out at 1.12.
Take `Cc1noc(-c2ccc(CSCCC(=O)O)cc2)c1NC(=O)OC(C)c1ccccc1Cl` (stereo not shown) [Ki16425]: under setting [1], the “Average LMP1 Fold Increase” value worked out at 0.62. Under setting [2], the “Replicate 1-LMP1 Fold Increase” value worked out at 0.80 and the “Replicate 2-LMP1 Fold Increase” value was 0.45.
For `O=C(c1cn(Cc2cncn2Cc2ccc(Br)cc2)cc1-c1cccc2ccccc12)N1CCOCC1` [LB42708] the same measures were 0.31, 0.46 and 0.16.
The like results for `Cc1c(C(=O)Nc2ccc(N3C[C@@H](C)O[C@@H](C)C3)nc2)cccc1-c1ccc(OC(F)(F)F)cc1` [LDE225 (NVP-LDE225, Erismodegib)] were, in that order, 0.39, 0.50 and 0.29.
With `Cc1cc(Nc2ncc(Cl)c(Nc3ccccc3S(=O)(=O)C(C)C)n2)c(OC(C)C)cc1C1CCNCC1` [LDK378], the fold induction at 2.5 µM under setting [3] was found to be 0.67, the fold induction at 2.5 µM under setting [4] was determined as 0.85 and the fold induction at 2.5 µM under setting [5] was 0.49.
As for `c1cc(-c2cnn3cc(-c4ccc(N5CCNCC5)cc4)cnc23)c2cccnc2c1` [LDN-212854], under setting [1], the “Average LMP1 Fold Increase” value came to 0.62. Under setting [2], the “Replicate 1-LMP1 Fold Increase” value is 0.96 and the “Replicate 2-LMP1 Fold Increase” value was 0.27.
The like results for `C[C@H](NC(=O)[C@@H](O)c1cc(F)cc(F)c1)C(=O)N[C@@H]1C(=O)N(C)c2ccccc2-c2ccccc21` [LY411575] were, in that order, 0.36, 0.41 and 0.31.
The like results for `Cc1cccc(-c2nn3c(c2-c2ccnc4ccc(C(N)=O)cc24)CCC3)n1` [LY2157299] were, in that order, 0.30, 0.30 and 0.30.
Regarding `CC(C)(C)Cn1c(N)nc2ccc(-c3[nH]c(C(C)(C)C)nc3-c3ccc(F)cc3)nc21` [LY2228820], the “Average LMP1 Fold Increase” value under setting [1] amounted to 0.60. Under setting [2], the “Replicate 1-LMP1 Fold Increase” value was 0.63 and the “Replicate 2-LMP1 Fold Increase” value turned out to be 0.56.
Regarding `Cc1cnc(NC(=O)Nc2cc(Br)c(C)cc2OC[C@@H]2CNCCO2)cn1` [LY2603618], the “Average LMP1 Fold Increase” value under setting [1] turned out to be 1.21. Further, under setting [2], the “Replicate 1-LMP1 Fold Increase” value is listed as 0.94 and the “Replicate 2-LMP1 Fold Increase” value is reported as 1.47.
The like results for `Cc1cc(Nc2cc(CN3CCOCC3)c3nc(C)c(Cc4ccc(Cl)cc4F)n3n2)n[nH]1` [LY2784544] were, in that order, 0.94, 1.24 and 0.65.
As for `O=C(C[S+]([O-])Cc1ccco1)NC/C=C\COc1cc(CN2CCCCC2)ccn1` (stereo not shown) [Lafutidine], the fold induction at 2.5 µM runs as follows: under setting [3], 0.85; under setting [4], 0.94; under setting [5], 0.76.
In the case of `Nc1cccc2c1CN(C1CCC(=O)NC1=O)C2=O` (stereo not shown) [Lenalidomide (CC-5013)], the “Average LMP1 Fold Increase” value under setting [1] was 1.74. For the same compound, under setting [2], the “Replicate 1-LMP1 Fold Increase” value amounted to 1.57 and the “Replicate 2-LMP1 Fold Increase” value was determined as 1.91.
Regarding `N#Cc1ccc(C(c2ccc(C#N)cc2)n2cncn2)cc1` [Letrozole], the fold induction at 2.5 µM by setting is: under setting [3], 1.05; under setting [4], 0.66; under setting [5], 1.44.
With `CCN1CCC[C@H]1CNC(=O)c1cc(S(N)(=O)=O)ccc1OC` [Levosulpiride], the fold induction at 2.5 µM runs as follows: under setting [3], 0.5; under setting [4], 0.7; under setting [5], 0.3.
For `CC#CCn1c(N2CCC[C@@H](N)C2)nc2c1c(=O)n(Cc1nc(C)c3ccccc3n1)c(=O)n2C` [Linagliptin] the same measures were 0.91, 1.01 and 0.81.
For `Nc1nc(OCc2cc(Br)cs2)c2[nH]cnc2n1` [Lomeguatrib] the same measures were 1.09, 0.57 and 1.61.
The like results for `CCOC(=O)N1CCC(=C2c3ccc(Cl)cc3CCc3cccnc32)CC1` [Loratadine] were, in that order, 0.28, 0.24 and 0.32.
Turning to `CCCCc1nc(Cl)c(CO)n1Cc1ccc(-c2ccccc2-c2nnn[n-]2)cc1.[K+]` [Losartan Potassium (DuP 753)], under setting [1], the “Average LMP1 Fold Increase” value amounted to 0.35. Besides, under setting [2], the “Replicate 1-LMP1 Fold Increase” value is listed as 0.21 and the “Replicate 2-LMP1 Fold Increase” value worked out at 0.48.
